Counter-ions that a name gives are not always drawn.
How the values were obtained:
[1] = target: rat striatal dopamine receptor (Rattus norvegicus, UniProt P61169); assay: Test A: [3H]Spiroperidol displacement from rat striatal dopamine receptor binding sites; settings: rat striatal membranes, [3H]spiroperidol 0.19 nM, 37° C., 10 minutes, pH 7.6; read-out: Test A receptor DA IC50
Procedure: Test A--[^3 H Spiroperidol displacement from rat striatal dopamine receptor binding sites
(a) Radioligand--[phenyl-4-(n)-^3 H]Spiroperido (Amersham International, TRK 570, 21 Ci/mmol was used as a 1 μCi/1 μl solution in ethanol and this solution was diluted to 250 μCi in 1 ml of ethanol to produce a stock solution. This stock solution was diluted 3.2/10,000 in assay buffer and 0.1 ml volumes of this were added to 2 ml binding assays =0.19 nM [^3 H]spiroperidol and =[…]
(b) Assay buffer--The assay buffer was a modified 50 mM Tris HCl buffer with a pH of 7.6 containing the following additions: NaCl-120 mM, KCl-5 mM, MgCl2 -1 mM, CaCl2 -2 mM, Pargyline-10 μM and 1-Ascorbic Acid-0.1%
(c) Membrane preparation--The striata were dissected from male CFHB rats and homogenized in 20 volumes of ice cold 0.32M sucrose with a Teflon/glass homogenizer and the homogenate was centrifuged at 1000 g for 10 minutes. The resulting supernatant was recentrifuged at 30,000 g for 30 minutes and the supernatant was discarded and the pellet was resuspended by homogenization in 30 volumes of ice cold assay buffer.
(d) Non-specific binding--Non-specific binding was accounted for by the inclusion of 1 μM(+)butaclamol in blank binding assays which required a stock solution of 20 μM in distilled water.
(e) Displacing compounds--Solutions were prepared at 20x final assay concentration in distilled water.
(f) Binding assay protocol--1.3 ml assay buffer, 0.5 ml membrane suspension, 0.1 ml distilled H2 O or drug solution and 0.1 ml [^3 H]spiroperidol dilution Binding assays were made up in ice with the [^3 H]spiroperidol being added last and incubated at 37° C. for 10 minutes. The bound ligand was separated by filtration through Whatman GF/C filters under vacuum followed by 2×10 ml rinses of ice cold assay buffer. The filters were dried at 80° C. and counted in 5 ml volumes of ECONOFLUOR (NEN) scintillation cocktail. All binding assays, controls, blanks and each of four displacer concentration were run in triplicate. IC50 values (Test A) were obtained graphically from log dose versus percent inhibition of specific binding plots.

rat cortical α1 receptor = assay: Test B: [3H]Prazosin displacement from rat cortical α1 receptor binding sites; settings: rat cerebral cortex membranes, [3H]prazosin 0.1 nM, 25° C., 30 minutes, pH 7.5
Procedure: Test B--[^3 H]Pyrazosin displacement from rat cortical α1 receptor binding sites (a) Radioligand--[^3 H]Prazosin (Amersham International, TRK 647, 28 Ci/mmole) was used as a 1 μCi/1 μl solution and this stock solution was diluted 1/18,000 in assay buffer and 0.1 ml volumes of this were added to 2 ml binding assay. =0.1 nM [^3 H]Prazosin and =0.0056 μCi/binding assay (b) Membrane preparation--The cerebral cortices were dissected from male CFHB rats and homogenized in 20 volumes of ice cold 0.32M sucrose using a Teflon/glass homogenizer and the homogenate was centrifuged at 1000 g for 10 minutes. The resulting pellet was discarded and the supernatant was recentrifuged at 30,000 g for 30 minutes. The supernatant was discarded and the pellet was resuspended by homogenization in 50 volumes of 50 mM pH 7.5 Tris HCl buffer (assay buffer). (c) Non-specific binding--Non-specific binding was accounted for by the inclusion of 100 μM 1-noradrenaline in blank binding assays which required a stock solution of 2 mM 1-noradrenaline made up fresh daily in 0.1% 1-ascorbic acid. (d) Displacing compounds--Solutions were prepared at 20x final assay concentration in distilled water. (e) Binding assay protocol--1.3 ml assay buffer, 0.5 ml membrane suspension, 0.1 ml distilled H2 O or drug solution and 0.1 ml [^3 H]pyrazosin dilution Binding assays were made up in ice with the [^3 H]pyrazosin being added last and incubated at 25° C. for 30 minutes. The bound ligand was separated by filtration through Whatman GF/C glass fibre filters under vacuum followed by 2×10 ml rinses of ice cold assay buffer. The filters were dried at 80° C. and counted in 5 ml volumes of ECONOFLUOR (NEN) scintillation cocktail. All binding assays, controls, blanks and each of four displacer concentrations were run in triplicate. IC50 values (Test B) were obtained graphically from log dose versus percent inhibition of specific binding plots.

rat cortical α2 receptor = assay: Test C: [3H]Dihydroergocryptine displacement from rat cortical α2 receptor binding sites; settings: rat cortical membranes, [3H]dihydroergocryptine 0.45 nM, 25° C., 45 minutes in the dark; approximately 80% of binding is α2
Procedure: Test C--[^3 H]Dihydroergocryptine displacement from rat cortical α2 *receptor binding sites
(a) Radioligand--[9,10(n)-^3 H]9,10-Dihydroergocryptine (Amersham International, TRK 555, 17.5 Ci/mmole) was used as a 1 μCi/1 μl solution and this stock solution was diluted 1/6250 in assay buffer and 0.1 ml volumes of this were added to 2 ml binding assays. =0.45 nM and =0.016 μCi/binding assay
*In cortical membranes, [^3 H]dihydroergocryptine binds to both α1 and α2 receptor binding sites under the conditions of assay described here, approximately 80% of the binding is associated with α2 receptors.
(§1) (b) Membrane preparation--As for Test B
(c) Non-specific binding--As for Test B
(d) Displacing compounds--As for Test B
(e) Assay protocol--As for Test B with the exception that the binding assays were incubated at 25° C. for 45 minutes in the dark.

[2] = target: rat cortical muscarinic receptor; assay: Test D: [3H]Quinuclidinyl benzylate displacement from rat cortical muscarinic receptor binding sites; settings: rat cortical membranes, [3H]quinuclidinyl benzylate 0.31 nM, 25° C., 60 minutes; read-out: Test D MUSC IC50
Procedure: Test D--[^3 H]Quinuclidinyl benzylate displacement from rat cortical muscarinic receptor binding sites
(a) Radioligand--DL-[3-^3 H]Quinuclidinyl benzylate (Amersham International, TRK 506, 12 Ci/mmol) was used as a 1 μCi/1 μl solution and this stock solution was diluted 1/13333 in assay buffer and 0.1 ml volumes of this were added to 2 ml binding assay =0.31 nM and =0.0075 μCi/binding assay
as §1
(c) Non-specific binding--Non-specific binding was accounted for by the inclusion of 100 μM oxotremorine sesquifumarate in blank binding assays and this required a stock solution of 2 mM in distilled H2 O.
(d) Displacement compounds--As for Test B
(e) Assay protocol--As for Test B with the exception that the binding assays were incubated at 25° C. for 60 minutes.

Sequence of rat striatal dopamine receptor (P61169 whole entry): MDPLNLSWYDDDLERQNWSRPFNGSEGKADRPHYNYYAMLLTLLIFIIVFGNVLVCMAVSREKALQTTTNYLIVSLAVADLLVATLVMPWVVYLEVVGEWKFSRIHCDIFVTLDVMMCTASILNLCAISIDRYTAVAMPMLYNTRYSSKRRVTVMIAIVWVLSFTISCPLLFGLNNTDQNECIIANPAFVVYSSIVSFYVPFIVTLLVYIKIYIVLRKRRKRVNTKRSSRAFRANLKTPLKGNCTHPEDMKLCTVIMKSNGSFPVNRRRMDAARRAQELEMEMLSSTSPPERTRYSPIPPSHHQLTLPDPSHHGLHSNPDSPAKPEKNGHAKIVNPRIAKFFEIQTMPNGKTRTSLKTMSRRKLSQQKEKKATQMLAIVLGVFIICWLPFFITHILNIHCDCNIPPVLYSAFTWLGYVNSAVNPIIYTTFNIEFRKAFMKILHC

Row | Compound | IC50 [1] [nM] | IC50 (rat cortical α1 receptor) [nM] | IC50 (rat cortical α2 receptor) [nM] | IC50 [2] [nM]
1 | COc1ccc2sc3c(c(=O)c2c1)CNCC3 [Example 4, 1,2,3,4-tetrahydro-8-methoxy-10H-(1)-benzothiopyrano[3,2-c]pyridin-10-one hydrochloride] | > 10000 | 7800 | 2900 | 57500
2 | O=C(CN1CCc2sc3ccccc3c(=O)c2C1)c1ccccc1 [Example 33] | > 10000 | > 10000 | > 10000 | > 100000
3 | O=c1c2c(sc3ccccc13)CCN(Cc1ccccc1)C2 [Example 6, 2-benzyl-1,2,3,4-tetrahydro-10H-(1)-benzothiopyrano[3,2-c]pyridin-10-one hydrochloride] | 680 | 4000 | 500 | > 100000
4 | NC(=O)CCN1CCc2sc3ccccc3c(=O)c2C1 [Example 23, 2-(2-carbamoylethyl)-1,2,3,4-tetrahydro-10H-(1)-benzothiopyrano[3,2-c]pyridin-10-one hydrochloride] | 4200 | 5900 | 3000 | > 100000
5 | C=CCN1CCc2sc3ccccc3c(=O)c2C1 [Example 34] | 2810 | 3980 | 390 | 37200
6 | CCCCCN1CCc2sc3ccccc3c(=O)c2C1 [Example 17, 1,2,3,4-tetrahydro-2-n-pentyl-10H-(1)-benzothiopyrano[3,2-c]pyridin-10-one hydrochloride] | 70 | 310 | 70 | 39800
7 | O=c1c2c(sc3ccccc13)CCN(CC1CCCC1)C2 [Example 27, 2-cyclopentylmethyl-1,2,3,4-tetrahydro-10H-(1)-benzothiopyrano[3,2-c]pyridin-10-one] | 40 | 680 | 50 | 57500
8 | O=c1c2c(sc3c1ccc1ccccc13)CCNC2 [Example 8, 1,2,3,4-tetrahydro-12H-naphtho[1',2':6,5]thiopyrano[3,2-c]pyridin-12-one hydrochloride] | 680 | 740 | 1000 | 8100
9 | O=C(CCCN1CCc2sc3ccccc3c(=O)c2C1)c1ccc(F)cc1 [Example 16, 2-(4-p-fluorophenyl-4-oxobutyl)-1,2,3,4-tetrahydro-10H-(1)-benzothiopyrano-[3,2-c]pyridin-10-one hydrochloride] | 20 | 20 | 20 | > 100000

The remaining compounds from weak to strong by IC50 [1], led by results:

Row | IC50 [1] [nM] | IC50 (rat cortical α1 receptor) [nM] | IC50 (rat cortical α2 receptor) [nM] | IC50 [2] [nM] | Compound
10 | 1000 | 1500 | 290 | 44700 | CCN1CCc2sc3ccccc3c(=O)c2C1 [Example 13, 2-ethyl-1,2,3,4-tetrahydro-10H-(1)-benzothiopyrano[3,2-c]pyridin-10-one hydrochloride]
11 | 490 | 1300 | 150 | > 100000 | CCCN1CCc2sc3ccccc3c(=O)c2C1 [Example 11, 1,2,3,4-tetrahydro-2-n-propyl-10H-(1)-benzothiopyrano[3,2-c]pyridin-10-one hydrochloride]
12 | 180 | 1150 | 190 | > 100000 | O=c1c2c(sc3ccccc13)CCN(CCC1CCCCC1)C2 [Example 30]
13 | 160 | 1590 | 600 | 11700 | O=c1c2c(sc3ccccc13)CCN(C1CCCCC1)C2 [Example 37]
14 | 40 | > 10000 | > 10000 | > 100000 | O=c1c2c(sc3ccc(F)cc13)CCN(CC1CCCCC1)C2 [Example 24, 2-cyclohexylmethyl-8-fluoro-1,2,3,4-tetrahydro-10H-(1)-benzothiopyrano[3,2-c]pyridin-10-one hydrochloride]
15 | 30 | 190 | 150 | 44700 | O=c1c2c(sc3ccccc13)CCN(CCCn1c(=O)[nH]c3ccccc31)C2 [Example 36]

Reference: patent US4547507A, “Benzothiopyranopyridinones” (Roussel Uclaf, priority 1982, dated 1985)
